The values below come from ChEMBL document CHEMBL5126551, “Spiral molecules with antimalarial activities: A review” (Eur J Med Chem, 2022).

For experiment [1], the system named is Plasmodium falciparum. The experiment is described as follows: Antimalarial activity against Plasmodium falciparum 3D7 infected in human erythrocytes assessed as reduction in parasite growth measured after 72 hrs by microscopic analysis. It counts as functional, organism-based. The note with it: 3D7, Erythrocyte.
Experiment [2] concerns Plasmodium falciparum. The experiment is described as follows: Antimalarial activity against Plasmodium falciparum Dd2 infected in human erythrocytes assessed as reduction in parasite growth measured after 72 hrs by microscopic analysis. It counts as functional, organism-based. The note with it: Dd2, Erythrocyte.
In experiment [3] the test system is Plasmodium falciparum. Nature of the experiment: Antimalarial activity against chloroquine-sensitive Plasmodium falciparum D6 assessed as inhibition of parasite growth. The format is functional, organism-based.
In experiment [4] the test system is Plasmodium falciparum. The experiment is described as follows: Antimalarial activity against chloroquine-resistant Plasmodium falciparum W2 assessed as inhibition of parasite growth. The format is functional, organism-based.
Experiment [5] deals with Plasmodium falciparum. Nature of the experiment: Antimalarial activity against chloroquine-sensitive Plasmodium falciparum 3D7 assessed as reduction in parasite growth incubated for 72 hrs by SYBR green I-based DNA quantification assay. The format is functional, organism-based. The settings on record: 3D7, 72 h.
In experiment [6] the test system is Plasmodium falciparum. The experiment is described as follows: Antimalarial activity against Plasmodium falciparum K1 infected in human red blood cells assessed as inhibition of parasite growth incubated for 48 hrs by Giema staining based assay. The note with it: K1, Erythrocyte. It counts as functional, organism-based, Red blood cell.
Experiment [7] relates to Plasmodium falciparum. The experiment is described as follows: Antimalarial activity against chloroquine-resistant Plasmodium falciparum FCB-2 infected in human erythrocyte assessed as inhibition of parasite growth incubated for 48 hrs by [3H]-hypoxanthine incorporation assay based liquid scintillation counter method. It counts as functional, organism-based. The settings on record: FCB-2, Erythrocyte.

Experiment [8] has as its system Plasmodium falciparum. Nature of the experiment: Antimalarial activity against chloroquine, amodiaquine, quinine and artesunate-resistant Plasmodium falciparum NF-54 infected in human erythrocyte assessed as inhibition of parasite growth incubated for 48 hrs by [3H]-hypoxanthine incorporation assay based liquid scintillation counter method. The format is functional, organism-based. The settings on record: NF-54, Erythrocyte.

The subject of experiment [9] is Plasmodium falciparum. Nature of the experiment: Antimalarial activity against chloroquine-sensitive Plasmodium falciparum 3D7 infected in human erythrocyte assessed as inhibition of parasite growth incubated for 66 hrs by [3H]-hypoxanthine incorporation assay based liquid scintillation spectrometric method. The format is functional, organism-based. The settings on record: 3D7, Erythrocyte.

Experiment [10] deals with Plasmodium falciparum. Nature of the experiment: Antimalarial activity against Plasmodium falciparum infected in human […] assessed as inhibition of parasite growth incubated for 30 hrs by [3H]-hypoxanthine incorporation assay based liquid scintillation spectrometric method. The format is functional, organism-based.
Experiment [11] concerns Plasmodium falciparum. The experiment is described as follows: Antimalarial activity against chloroquine-sensitive Plasmodium falciparum NF54 infected in human red blood cells assessed as reduction in parasite growth incubated for 72 hrs by SYBR green I-based DNA quantification assay. It counts as functional, organism-based, Red blood cell. The settings on record: NF54, Erythrocyte.

In experiment [12] the test system is Plasmodium falciparum. Nature of the experiment: Antimalarial activity against multidrug-resistant Plasmodium falciparum Dd2 infected in human red blood cells assessed as reduction in parasite growth incubated for 72 hrs by SYBR green I-based DNA quantification assay. The format is functional, organism-based, Red blood cell. The note with it: Dd2, Erythrocyte.

Experiment [13] concerns Plasmodium falciparum. Nature of the experiment: Antimalarial activity against chloroquine-sensitive Plasmodium falciparum 3D7 infected in human red blood cells assessed as reduction in parasite growth incubated for 72 hrs by SYBR green I-based DNA quantification assay. The format is functional, organism-based, Red blood cell. The note with it: 3D7, Erythrocyte.
The test system of experiment [14] is Plasmodium falciparum. Nature of the experiment: Antimalarial activity against chloroquine resistant Plasmodium falciparum K1 assessed as inhibition of parasite growth incubated for 72 hrs by HRP2-based ELISA assay. The format is functional, organism-based. The note with it: K1, 72 h. For orientation: In an ELISA, binding on a coated surface is turned into a signal by an enzyme label.

Experiment [15] has as its system Plasmodium falciparum. Nature of the experiment: Antimalarial activity against multidrug-resistant early ring stage Plasmodium falciparum K14 infected in human erythrocytes assessed as inhibition of parasite growth incubated for 48 hrs by [3H]-hypoxanthine incorporation assay. The format is functional, organism-based. The settings on record: K14, Erythrocyte.
Experiment [16] concerns Plasmodium falciparum. The experiment is described as follows: Antimalarial activity against drug-resistant Plasmodium falciparum K1 assessed as inhibition of parasite growth. The format is functional, organism-based.
Experiment [17] relates to Plasmodium falciparum. The experiment is described as follows: Antimalarial activity against drug-sensitive Plasmodium falciparum FCR3 assessed as inhibition of parasite growth. The format is functional, organism-based.
Experiment [18] concerns Plasmodium falciparum. Nature of the experiment: Antimalarial activity against Plasmodium falciparum V1/S assessed as inhibition of parasite growth. The format is functional, organism-based.
Experiment [19] concerns Plasmodium falciparum. Nature of the experiment: Antimalarial activity against Plasmodium falciparum D6 assessed as inhibition of parasite growth. The format is functional, organism-based.
The subject of experiment [20] is Plasmodium falciparum. Nature of the experiment: Antimalarial activity against Plasmodium falciparum TM90C2B assessed as inhibition of parasite growth. It counts as functional, organism-based.
Experiment [21] has as its system Plasmodium falciparum. Nature of the experiment: Antimalarial activity against Plasmodium falciparum Dd2 assessed as inhibition of parasite growth. It counts as functional, organism-based.
For experiment [22], the system named is Plasmodium falciparum. The experiment is described as follows: Antimalarial activity against Plasmodium falciparum FCB assessed as inhibition of parasite growth. It counts as functional, organism-based.
The subject of experiment [23] is Plasmodium falciparum. Nature of the experiment: Antimalarial activity against Plasmodium falciparum 1 assessed as inhibition of parasite growth. It counts as functional, organism-based.
The subject of experiment [24] is Plasmodium falciparum. Nature of the experiment: Antimalarial activity against Plasmodium falciparum HB3 assessed as inhibition of parasite growth. It counts as functional, organism-based.
Experiment [25] concerns Plasmodium falciparum. Nature of the experiment: Antimalarial activity against Plasmodium falciparum 7G8 assessed as inhibition of parasite growth. It counts as functional, organism-based.
The subject of experiment [26] is Plasmodium falciparum. The experiment is described as follows: Antimalarial activity against Plasmodium falciparum 3D7 assessed as inhibition of parasite growth. The format is functional, organism-based.
In experiment [27] the test system is Plasmodium falciparum. The experiment is described as follows: Antimalarial activity against chloroquine and pyrimethamine resistant Plasmodium falciparum K1 infected in human red blood cells assessed as inhibition of parasite growth incubated for 72 hrs by [3H]-hypoxanthine incorporation assay based liquid scintillation counter method. The format is functional, organism-based, Red blood cell. The settings on record: K1, Erythrocyte.

The test system of experiment [28] is Plasmodium falciparum. Nature of the experiment: Antimalarial activity against chloroquine-sensitive Plasmodium falciparum NF54 infected in human red blood cells assessed as inhibition of parasite growth incubated for 72 hrs by [3H]-hypoxanthine incorporation assay based liquid scintillation counter method. The format is functional, organism-based, Red blood cell. The settings on record: NF54, Erythrocyte.

The subject of experiment [29] is Plasmodium falciparum. Nature of the experiment: Antimalarial activity against Plasmodium falciparum Cam3.I^R539T assessed as inhibition of parasite growth measured after 6 hrs. The format is functional.

Structures are written as SMILES. Values after ≈ are worked out from the molar mass of the structure shown.

Take `OCCCCCCC1COOC2(CCCCCCCCCCC2)OOC1`: the EC50 in experiment [1] worked out at 332 nM; in [2], 897 nM.

On to `CC(=O)O[C@H]1C[C@H]2[C@@H]([C@H](OC(C)=O)C[C@@H]3CC4(CC[C@@]32C)OOC2(CCC(C)CC2)OO4)[C@@H]2CC[C@H]([C@H](C)CCC(N)=O)[C@@]12C` (some centres undefined), for which the IC50 in experiment [3] turned out to be 1.17 nM; in [4] it was 0.58 nM.

With `OC(CN1CCC2(CC1)CC(O)c1ccc3ccccc3c1O2)c1ccc(F)c(F)c1` (centres undefined), the EC50 in [5] was found to be 390 nM.

In the case of `O=C1CCCCC12Oc1c(Cl)cccc1C2=O` (centres undefined), the half-inhibitory concentration (IC50) in [6] is 29.3 µg/mL (≈ 117 µM).

Take `C[C@@H]1CC[C@]2(C[C@H]3C[C@H]4[C@@H]5CCC67OC6C(=O)CC[C@]7(C)[C@H]5CC[C@]4(C)[C@H]3[C@@H]2C)OC1` (some centres undefined): the IC50 in experiment [7] was 10.1 µM; in experiment [8], 8.5 µM.

`CCCCCCCCCCCCCC1OC2CC(O)C=CC23C1C(=O)N3Cc1ccccc1` (centres undefined): the IC50 in [9] came to 860 nM; in [10], 5.55 µM.

Regarding `COc1cc2c(cc1OC)C1(NCC2)C(=O)Nc2ccc(Cl)cc21` (centres undefined), the EC50 in experiment [11] is 686 nM; in experiment [12], 1730 nM; in experiment [13] it was 1860 nM.

Turning to `COc1ccc(COCCC2NCCC23C(=O)Nc2ccccc23)cc1` (centres undefined), in experiment [14], the IC50 amounted to 10.6 µM.

For the compound `O=C1C=Cc2cc(O)c(O)cc2C12C(=O)C=Cc1cc(O)c(O)cc12`, the half-maximal inhibitory concentration (IC50) in [15] amounted to 2320 nM.

Turning to `CNCCc1cc(Br)c(OCCCNC(=O)N(C)CCc2cc(Br)c(OCCCNC(=O)C3=NO[C@]4(CC(Br)=C(OC)C(Br)=CO4)[C@@H]3O)c(Br)c2)c(Br)c1`, the figures for the IC50 in experiment [16] and in experiment [17] were 1.03 µg/mL (≈ 0.904 µM) and 0.77 µg/mL (≈ 0.676 µM), respectively.

For `FC1CCN(CCOc2ccc(C3CCC4(CC3)OOC3(OO4)C4CCCC3CCC4)cc2)CC1` (centres undefined), the half-inhibitory concentration (IC50) in experiment [18] amounted to 4.2 nM; in experiment [19], 8.5 nM; in [20] it was 7.3 nM; in experiment [21] it was 7.7 nM; in experiment [22] it was 14 nM; in experiment [23], 4.2 nM. Moreover, the IC50 in experiment [24] turned out to be 4.2 nM; in [25], 2.9 nM; in [26], 5.1 nM.

As for `CCCCCCCCCCCCC[C@@H]1C[C@@H](O)C[C@]2(CCC3(C=CC(=O)C=C3)O2)O1` [ACULEATIN A], the values for the IC50 in experiment [27] and in experiment [28] were 180 nM and 200 nM, respectively.

`C[C@H]1[C@@H](O)O[C@@H]2O[C@@]3(C)CC[C@H]4[C@H](C)CC[C@@H]1[C@@]24OO3` [ARTENIMOL]: the IC90 in experiment [29] amounted to 2.7 ng/mL (≈ 0.0095 µM).

A word on the EC50: it is the concentration needed to bring the measured effect to its halfway point. A word on the IC50: it is the midpoint of a concentration-inhibition curve. A word on the IC90: it is the concentration needed for an effect of 90%.
